Results published in ChEMBL document CHEMBL1255224, “Design and synthesis of prolylcarboxypeptidase (PrCP) inhibitors to validate PrCP as a potential target for obesity” (J Med Chem, 2010).

Tests used:
[1] = biological target: T1, Lysosomal Pro-X carboxypeptidase (Mus musculus, UniProt Q7TMR0); assay: Inhibition of mouse PrCP by FRET in presence of 1% mouse serum albumin
T1 sequence (Q7TMR0 whole entry): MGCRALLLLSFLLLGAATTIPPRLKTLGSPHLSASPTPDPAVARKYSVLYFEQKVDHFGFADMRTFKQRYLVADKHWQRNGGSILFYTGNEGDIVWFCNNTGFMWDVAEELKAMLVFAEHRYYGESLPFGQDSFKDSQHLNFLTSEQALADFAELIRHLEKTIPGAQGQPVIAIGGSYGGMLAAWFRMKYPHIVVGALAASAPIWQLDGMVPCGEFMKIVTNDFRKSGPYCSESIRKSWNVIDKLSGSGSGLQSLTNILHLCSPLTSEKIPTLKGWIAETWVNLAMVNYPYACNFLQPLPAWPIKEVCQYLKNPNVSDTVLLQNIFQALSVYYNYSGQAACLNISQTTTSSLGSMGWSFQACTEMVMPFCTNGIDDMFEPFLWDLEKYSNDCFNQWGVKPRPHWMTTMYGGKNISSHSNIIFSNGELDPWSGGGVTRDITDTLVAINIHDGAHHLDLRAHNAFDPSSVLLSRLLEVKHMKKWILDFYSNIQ

[2] = Half life in mouse; assay type: ADME, organism-based; settings: in vivo
[3] = Oral bioavailability in mouse; assay type: ADME, organism-based; settings: in vivo
[4] = Clearance in mouse; assay type: ADME, organism-based; settings: in vivo
[5] = Volume of distribution in mouse; assay type: ADME, organism-based; settings: in vivo
[6] = biological target: T1, Lysosomal Pro-X carboxypeptidase; assay: Inhibition of mouse PrCP by FRET
Blood [7] = assay: Drug level in C57BL/6NT PrCP knock out mouse blood at 100 mg/kg, po; assay type: ADME, organism-based; set-up: dose 100 mg/kg, route oral; settings: in vivo, read-out: Activity
Brain [8] = assay: Drug level in C57BL/6NT wild type mouse brain at 100 mg/kg, po; assay type: ADME, organism-based; set-up: dose 100 mg/kg, route oral; settings: in vivo, read-out: Activity
Mus musculus [9] = assay: Antiobesity activity against C57BL/6NT mouse overexpressing PrCP assessed as reduction in body weight at 100 mg/kg, po; assay type: functional; set-up: scale not given: the % may be the effect or the level left
Brain [10] = assay: Drug level in C57BL/6NT PrCP knock out mouse brain at 100 mg/kg, po; assay type: ADME, organism-based; set-up: dose 100 mg/kg, route oral; settings: in vivo, read-out: Activity
Blood [11] = assay: Drug level in C57BL/6NT wild type mouse blood at 100 mg/kg, po; assay type: ADME, organism-based; set-up: dose 100 mg/kg, route oral; settings: in vivo, read-out: Activity
Mus musculus [12] = assay: Antiobesity activity against C57BL/6NT mouse PrCP knock out model assessed as reduction in body weight at 100 mg/kg, po for 5 days; assay type: functional; set-up: scale not given: the % may be the effect or the level left

Row | SMILES | IC50 [1] | half-life [2] | bioavailability [3] | clearance [4] | Vd [5] | IC50 [6] | concentration (Blood [7]) | concentration (Brain [8]) | concentration (Brain [10]) | concentration (Blood [11]) | Activity (Mus musculus [9]) | Activity (Mus musculus [12])
1 | CC(C)(O)C(=O)N[C@@H](Cc1ccc(-c2ccccc2)cc1)C(=O)N1CCC[C@H]1c1ncc(C(C)(C)C)[nH]1 | 15 nM | 0.4 h | 0% | 117 mL/min/kg | 2.9 L/kg | 16 nM | – | – | – | – | – | –
2 | Cc1ccccc1-c1c[nH]c([C@@H]2CCCN2C(=O)COc2ccc(-c3ccccc3)cc2)n1 | – | 3.4 h | 49% | 54 mL/min/kg | 4 L/kg | – | – | – | – | – | – | –
3 | CC(C)(O)C(=O)N[C@@H](Cc1ccc(-c2ccccc2)cc1)C(=O)N1CCC[C@H]1c1nc2cc(F)c(F)cc2[nH]1 | – | 0.5 h | 9% | 39 mL/min/kg | 1.5 L/kg | – | – | – | – | – | – | –
4 | Cc1cccc2[nH]c([C@@H]3[C@@H]4C[C@@H]4CN3C(=O)COc3ccc(-c4ccccc4)cc3)nc12 | – | 0.6 h | 20% | 41 mL/min/kg | 2.3 L/kg | – | – | – | – | – | – | –
5 | C[C@@H](c1ccc(-c2ccc(F)cc2)cc1)[C@H](NC(=O)C(C)(C)O)C(=O)N1CCC[C@H]1c1nc2cc(Cl)c(Cl)cc2[nH]1 | – | 0.8 h | 12% | 23 mL/min/kg | 1.2 L/kg | – | – | – | – | – | – | –
6 | N#Cc1cccc(-c2ccc(CCC(=O)N3C[C@H](O)C[C@H]3c3nc(-c4cccc(Cl)c4)c[nH]3)cc2)c1 | – | 0.6 h | 1% | 82 mL/min/kg | 2.2 L/kg | – | – | – | – | – | – | –
7 | C[C@@H](c1ccccc1)[C@H](NC(=O)C(C)(C)N)C(=O)N1CCC[C@H]1c1nc2cc(Cl)c(Cl)cc2[nH]1 | 60 nM | 1.5 h | 41% | 17 mL/min/kg | 1.5 L/kg | 32 nM | – | – | – | – | – | –
8 | Cn1cc(-c2ccc(C[C@H](NC(=O)C(C)(C)N)C(=O)N3CCC[C@H]3c3nc4cc(Cl)c(Cl)cc4[nH]3)cc2)ccc1=O | – | 2.6 h | 0% | 70 mL/min/kg | 14 L/kg | – | – | – | – | – | – | –
9 | C[C@@H](c1ccccc1)[C@H](NC(=O)C(C)(C)O)C(=O)N1CCC[C@H]1c1nc2cc(Cl)c(Cl)cc2[nH]1 | 98 nM | 0.5 h | 4% | 72 mL/min/kg | 2.4 L/kg | 29 nM | – | – | – | – | – | –
10 | CC(C)(N)C(=O)N[C@@H](Cc1ccc(-c2ccccc2)cc1)C(=O)N1CCC[C@H]1c1ncc(C(C)(C)C)[nH]1 | 17 nM | 15 h | 6% | 11 mL/min/kg | 11 L/kg | 41 nM | – | – | – | – | – | –
11 | COc1ccc(C[C@H](NC(=O)C(C)(C)N)C(=O)N2CC[C@H]2c2nc3cc(Cl)c(Cl)cc3[nH]2)cc1 | 3320 nM | 1.4 h | 33% | 25 mL/min/kg | 2.2 L/kg | 251 nM | – | – | – | – | – | –
12 | CC(C)(N)C(=O)N[C@@H](Cc1ccc(Cl)cc1)C(=O)N1CCC[C@H]1c1nc2cc(Cl)c(Cl)cc2[nH]1 | – | 3 h | 100% | 7 mL/min/kg | 2.6 L/kg | – | – | – | – | – | – | –
13 | C[C@@H](c1ccc(-c2ccccc2)cc1)[C@H](NC(=O)C(C)(C)N)C(=O)N1CCC[C@H]1c1nc2cc(Cl)c(Cl)cc2[nH]1 | 8 nM | 2.3 h | 13% | 23 mL/min/kg | 4.4 L/kg | 2 nM | 430 nM | 50 nM | 40 nM | 380 nM | 4.9% | 1.1%

Now from value to compound, other results behind:

Row | IC50 [1] | half-life [2] | bioavailability [3] | clearance [4] | Vd [5] | IC50 [6] | concentration (Blood [7]) | concentration (Brain [8]) | concentration (Brain [10]) | concentration (Blood [11]) | SMILES | Activity (Mus musculus [9]) | Activity (Mus musculus [12])
14 | – | 9.6 h | 5% | 15 mL/min/kg | 4 L/kg | – | – | – | – | – | CC(C)(Cc1ccc(-c2cccc(Cl)c2Cl)cc1)C(=O)N1CC(F)(F)C[C@H]1c1ncc(-c2cccc(Br)c2)[nH]1 | – | –
15 | 789 nM | 2.8 h | 31% | 12 mL/min/kg | 2.7 L/kg | 15 nM | – | – | – | – | CC(C)(N)C(=O)N[C@@H](Cc1ccc(-c2ccccc2)cc1)C(=O)N1CCC[C@H]1c1nc2cc(Cl)c(Cl)cc2[nH]1 | – | –
16 | – | 4.3 h | 0% | 23 mL/min/kg | 7.9 L/kg | – | – | – | – | – | CC(C)(CN)C(=O)N[C@@H](Cc1ccc(-c2ccccc2)cc1)C(=O)N1CCC[C@H]1c1nc2cc(Cl)c(Cl)cc2[nH]1 | – | –
17 | – | 2.3 h | 5% | 92 mL/min/kg | 8.8 L/kg | – | – | – | – | – | CC(C)(Cc1ccc(-c2ccccc2)cc1)C(=O)N1CCC[C@H]1c1nc(-c2cccc(F)c2)c[nH]1 | – | –
18 | – | 0.8 h | 5% | 75 mL/min/kg | 4.6 L/kg | 871 nM | – | – | – | – | O=C(CCc1ccc(-c2ccccc2)cc1)N1CCC[C@H]1c1ncc(-c2cccc(F)c2)[nH]1 | – | –
19 | – | 5.2 h | 0% | 14 mL/min/kg | 6.8 L/kg | – | – | – | – | – | CC(C)(N)CC(=O)N[C@@H](Cc1ccc(-c2ccccc2)cc1)C(=O)N1CCC[C@H]1c1nc2cc(Cl)c(Cl)cc2[nH]1 | – | –
